Assay results reported in patent US20180235993A1 (priority 2000, published 2018).
Read-outs that look alike come from different tables or passages of the source.

How the values were obtained:
[1] = system: Human bone marrow cells (BFU-E); assay: Human bone marrow toxicity, BFU-E clonogenic assay; type: cell-based; conditions: human bone marrow colony formation, 14 to 18 days
From the text: (§1) Human bone marrow cells were collected from normal healthy volunteers and the mononuclear population was separated by Ficoll-Hypaque gradient centrifugation as described previously by Sommadossi J-P, Carlisle R. “Toxicity of 3′-azido-3′-deoxythymidine and 9-(1,3-dihydroxy-2-propoxymethyl)guanine for normal human hematopoietic progenitor cells in vitro” Antimicrobial Agents and Chemotherapy 1987; 31:452-454; and Sommadossi J-P, Schinazi R F, Chu C K, Xie M-Y. “Comparison of cytotoxicity of the (−)- and (+)-enantiomer of 2′,3′-dideoxy-3′-thiacytidine in normal human bone marrow progenitor cells” Biochemical Pharmacology 1992; 44:1921-1925. The culture assays for CFU-GM and BFU-E were performed using a bilayer soft agar or methylcellulose method. Drugs were diluted in tissue culture medium and filtered. After 14 to 18 days at 37° C. in a humidified atmosphere of 5% CO2 in air, colonies of greater than 50 cells were counted using an inverted microscope. The results in Table 4 are presented as the percent inhibition of colony formation in the presence of drug compared to solvent control cultures.

[2] = system: PICO (Cosxackie B1 and Polio Sabin); assay: organism not typed; type: cell-based; conditions: Vero, read-out: Comparative Antiviral Activity EC50 PICO
[3] = Cytotoxicity assay (sulforhodamine B, CC50), Human Hepatoma; type: cell-based; conditions: human; for CC50 at 4 days: 4 days incubation; for EC50 at 4 days: Table 13
Experimental: (§2) Cells were seeded at a rate of between 5×10^3 and 5×10^4/well into 96-well plates in growth medium overnight at 37° C. in a humidified CO2 (5%) atmosphere. New growth medium containing serial dilutions of the drugs was then added. After incubation for 4 days, cultures were fixed in 50% TCA and stained with sulforhodamineB. The optical density was read at 550 nm. The cytotoxic concentration was expressed as the concentration required to reduce the cell number by 50% (CC50).

[4] = system: Human bone marrow cells (CFU-GM); assay: Human bone marrow toxicity, CFU-GM clonogenic assay; type: cell-based; conditions: read-out: IC50 CFU-GM
From the text: as §1

BVDV = assay: Plaque Reduction Assay; type: cell-based, Bovine Viral Diarrhea virus
Experimental: For each compound the effective concentration was determined in duplicate 24-well plates by plaque reduction assays. Cell monolayers were infected with 100 PFU/well of virus. Then, serial dilutions of test compounds in MEM supplemented with 2% inactivated serum and 0.75% of methyl cellulose were added to the monolayers. Cultures were further incubated at 37° C. for 3 days, then fixed with 50% ethanol and 0.8% Crystal Violet, washed and air-dried. FIG. 7 is a graphical illustration of the results from the Plaque Reduction Assay. FIG. 8 is an image of BVDV plaque formation in the presence of increasing concentrations of β-D-2′-CH3-riboU.

BVDV (strain NADL) = assay: Cell Protection Assay (CPA); type: cell-based, Bovine Viral Diarrhea virus
Experimental: The assay was performed essentially as described by Baginski, S. G.; Pevear, D. C.; Seipel, M.; Sun, S. C. C.; Benetatos, C. A.; Chunduru, S. K.; Rice, C. M. and M. S. Collett “Mechanism of action of a pestivirus antiviral compound” PNAS USA 2000, 97(14), 7981-7986. MDBK cells (ATCC) were seeded onto 96-well culture plates (4,000 cells per well) 24 hours before use. After infection with BVDV (strain NADL, ATCC) at a multiplicity of infection (MOI) of 0.02 plaque forming units (PFU) per cell, serial dilutions of test compounds were added to both infected and uninfected cells in a final concentration of 0.5% DMSO in growth medium. Each dilution was tested in quadruplicate. Cell densities and virus inocula were adjusted to ensure continuous cell growth throughout the experiment and to achieve more than 90% virus-induced cell destruction in the untreated controls after four days post-infection. After four days, plates were fixed with 50% TCA and stained with sulforhodamine B. The optical density of the wells was read in a microplate reader at 550 nm. The 50% effective concentration (EC50) values were defined as the compound concentration that achieved 50% reduction of cytopathic effect of the virus. FIGS. 4 and 5 provide a graphical illustration of the methodology used to arrive at the 50% effective concentration (EC50) values for β-D-2′-CH3-riboG and ribavirin. FIG. 6 compares the results of the CPA for β-D-2′-CH3-riboG, β-D-2′-CH3-riboC, riboU, β-D-2′-CH3-riboA and ribavirin

YFV-17D = assay: microbe, parasite or virus in culture; type: cell-based, Yellow fever virus vaccine strain 17D
in vitro [5] = assay: in vitro
[6] = Cytotoxicity assay (sulforhodamine B, CC50), MDBK; type: cell-based; conditions: cattle; MDBK cells, 4 days incubation
Experimental: as §2

in vitro [7] = conditions: cattle
BVDV (NADL strain) = assay: Yield Reduction Assay; type: cell-based, Bovine Viral Diarrhea virus
Experimental: The assay was performed as described by Baginski, S. G.; Pevear, D. C.; Seipel, M.; Sun, S. C. C.; Benetatos, C. A.; Chunduru, S. K.; Rice, C. M. and M. S. Collett “Mechanism of action of a pestivirus antiviral compound” PNAS USA 2000, 97(14), 7981-7986, with minor modifications. Briefly, MDBK cells were seeded onto 24-well plates (2×10^5 cells per well) 24 hours before infection with BVDV (NADL strain) at a multiplicity of infection (MOI) of 0.1 PFU per cell. Serial dilutions of test compounds were added to cells in a final concentration of 0.5% DMSO in growth medium. Each dilution was tested in triplicate. After three days, cell cultures (cell monolayers and supernatants) were lysed by three freeze-thaw cycles, and virus yield was quantified by plaque assay. Briefly, MDBK cells were seeded onto 6-well plates (5×10^5 cells per well) 24 h before use. Cells were inoculated with 0.2 mL of test lysates for 1 hour, washed and overlaid with 0.5% agarose in growth medium. After 3 days, cell monolayers were fixed with 3.5% formaldehyde and stained with 1% crystal violet (w/v in 50% ethanol) to visualize plaques. FIG. 9 is a graphical illustration of the results from the Yield Reduction Assay. FIG. 8 is an image of BVDV yield reduction in the presence of increasing concentrations of β-D-2′-CH3-riboC.

HIV-1 = assay: Comparative antiviral activity (EC50), HIV-1; type: cell-based; conditions: Human immunodeficiency virus 1; Table 11
[8] = system: Bovine Viral Diarrhea virus (BVDV); assay: microbe, parasite or virus in culture; type: cell-based
VSV = assay: microbe, parasite or virus in culture; type: cell-based; conditions: Vesicular stomatitis virus, read-out: Comparative Antiviral Activity EC50 VSV
HepG2 cells = assay: Mitochondria toxicity assay (L-lactic acid assay); type: cell-based; conditions: 4 day drug exposure
Experimental: HepG2 cells were cultured in 12-well plates as described above and exposed to various concentrations of drugs as taught by Pan-Zhou X-R, Cui L, Zhou X-J, Sommadossi J-P, Darley-Usmer V M. “Differential effects of antiretroviral nucleoside analogs on mitochondrial function in HepG2 cells” Antimicrob Agents Chemother 2000; 44:496-503. Lactic acid levels in the culture medium after 4 day drug exposure was measured using a Boehringer lactic acid assay kit. Lactic acid levels were normalized by cell number as measured by hemocytometer count.

[9] = Huh7 cells (human hepatoma), Huh7 cells
[10] = Bovine viral diarrhea virus isolates and strains, Table 13, BVDV, 90% virus suppression, read-out: Plaque Reduction (EC90)
[11] = Bovine viral diarrhea virus isolates and strains, 96 h, MDBK cells infected with BVDV, 50% reduction of cytopathic effect, four days, read-out: EC50
[12] = Bovine viral diarrhea virus isolates and strains, Table 13, BVDV, read-out: Cell Protection (EC50)
[13] = Yellow fever virus, read-out: Comparative Antiviral Activity EC50 YFV
[14] = Bovine viral diarrhea virus isolates and strains, Table 13, BVDV
[15] = Bovine viral diarrhea virus isolates and strains, read-out: Comparative Antiviral Activity EC50 BVDV

SMILES | IC50 ([1]; Bone marrow cell) | EC50 [2] | EC50 at 4 days [3, 9] | IC50 ([4]; Homo sapiens, CFU-GM) | EC90 (BVDV; [10]) | EC50 (BVDV (strain NADL); [11]) | EC50 (BVDV (strain NADL); [12]) | EC50 (YFV-17D; [13]) | CC50 (in vitro [5]; African green monkey) | CC50 (in vitro [5]; hamster) | CC50 (in vitro [7]) | Yield Reduction 6 log10 reduction (μM) (BVDV (NADL strain)) | EC90 (BVDV (NADL strain); [14]) | EC50 (HIV-1) | EC50 [8, 15] | EC50 (VSV) | CC50 (in vitro [5]) | CC50 (in vitro [5]; human) | Conc. for 6-log Reduction (BVDV (NADL strain)) | also measured
NC(=O)c1ncn([C@@H]2O[C@H](CO)[C@@H](O)[C@H]2O)n1 [Ribavirin, reference compound] | ~1 µM | > 30 µM | 20 µM | ~5 µM | > 200 µM | > 3 µM | > 3 µM | 30 µM | 11 µM | 50 µM | 5 µM | toxic | > 20 µM | – | – | – | – | – | – | CC50 at 4 days ([3]; HepG2 cells (human hepatoma), HepG2 cells, read-out: CC50 HepG2): 150 µM; CC50 at 4 days ([3]; Huh7 cells (human hepatoma), Huh7 cells, read-out: CC50 Huh7): 25 µM; CC50 at 4 days [6]: 5 µM
C[C@@]1(n2cnc3c(N)ncnc32)O[C@H](CO)[C@H](O)C1O (stereo partly drawn) [β-D-1′-CH3-riboA, 1′-C-methylriboadenine] | – | 51 µM | – | – | – | – | – | 7 µM | > 100 µM | 200 µM | – | – | – | > 18 µM | 10 µM | > 100 µM | > 100 µM | 18 µM | – | –
CC1(O)[C@@H](O)[C@@H](CO)O[C@H]1n1cnc2c(N)ncnc21 (stereo partly drawn) [β-D-2′-CH3-riboA, 2′-C-methylriboadenine] | > 100 µM | 5 µM | 50 µM | > 100 µM | < 3 µM | 2 µM | 2 µM | 0.2 µM | 22 µM | 22 µM | 20 µM | 9 μM | < 2 µM | > 6.6 µM | 0.1 µM | > 100 µM | 75 µM | 6.6 µM | 9 μM | EC90 (BVDV; Bovine viral diarrhea virus isolates and strains, 72 h, concentration to obtain 90% virus suppression, 3 days, read-out: EC90): < 3 µM
C[C@@]1(O)[C@H](O)[C@@H](CO)O[C@H]1n1ccc(N)nc1=O [β-D-2′-CH3-riboC] | – | – | – | – | – | – | – | – | – | – | – | 20 μM | – | – | – | – | – | – | 20 μM | IC50 [1]: > 10 µM; CC50 (MDBK cells): 100 µM; CC50 (various cell systems): > 100 µM; CC50 (various cell systems; read-out: YFV CC50, Table 12, reduce the viability of cells by 50%, YFV-BHK system): > 100 µM; EC50 ([8]; read-out: BVDV EC50): 3.7 µM; IC50 ([4]; human bone marrow colony formation, 14 to 18 days): > 10 µM; EC90 (BVDV; read-out: EC90): < 9 µM; EC90 (BVDV; read-out: Plaque Reduction (EC90)): < 9 µM; EC50 (BVDV (strain NADL); read-out: Cell Protection (EC50)): 2 µM; EC50 (BVDV (strain NADL); read-out: EC50): 2 µM; EC50 (YFV-17D; Table 12, reduce the plaque number by 50%, YFV-BHK, read-out: YFV EC50): 70 µM; lactate (HepG2 cells; Conc. 1 μM): 2.52 mg/10^6 cell; lactate % of Control (HepG2 cells; Conc. 1 μM): 115.3%; lactate (HepG2 cells; Conc. 10 μM): 2.36 mg/10^6 cell; lactate % of Control (HepG2 cells; Conc. 10 μM): 107.9%; lactate (HepG2 cells; Conc. 50 μM): 2.26 mg/10^6 cell; lactate % of Control (HepG2 cells; Conc. 50 μM): 103.4%; lactate (HepG2 cells; Conc. 100 μM): 2.21 mg/10^6 cell; lactate % of Control (HepG2 cells; Conc. 100 μM): 101.2%; EC90 (BVDV (NADL strain)): < 4 µM
